“Also recorded” adds a separate entry of the source.
What was measured:
[1] = molecular target: human oxytocin receptor (human) (UniProt P30559)
[2] = system: GFP-conjugated human V1bR; test: Immunostaining and confocal microscopy: V1bR-GFP activation/internalization in HEK293 cells; format: cell-based; settings: 1 nM, 60 min
Text: (§1) The most promising photoprobe, 12, with a 5.3-fold photoswitch activity window at V1bR, was selected for more comprehensive in vitro experiments to validate its application scope for biological and neurological studies. As a model system, we used HEK293 cells overexpressing GFP-tagged V1bR, where receptor activation via pCREB (phosphorylated cAMP response element binding protein) and V1bR-GFP internalization can be followed through immunostaining and confocal scanning microscopy.
(§2) HEK293 cells stably expressing a C-terminal-conjugated GFP human V1bR were cultured in a full growth medium consisting of DMEM/GlutaMAX (Gibco, Thermo Fisher), containing 0.5 mg/mL G-418 (Gibco, Thermo Fisher), 1 mM sodium pyruvate (Gibco, Thermo Fisher), and 10% fetal bovine serum (Gibco, Thermo Fisher). […]
(§3) Coverslips were first incubated with 5% normal donkey serum (Jackson Immuno Research), 2% bovine serum albumin (Sigma-Aldrich, Merck), and 0.2% Triton X-100 (Sigma-Aldrich, Merck) to block nonspecific protein binding. […] Images were analyzed with ZEN pro (Zeiss) ImageJ 1.52a and collated in CorelDraw 2019. To determine pCREB activation, the fluorescence was normalized to the negative control (cells treated with a serum-free medium without G-418 instead of 12), as already minor receptor interactions can lead to pCREB activity in overexpression systems.

[3] = system: pCREB; test: Immunostaining and confocal microscopy: pCREB activation in HEK293 cells overexpressing V1bR-GFP; format: cell-based, human; settings: 1 nM, 60 min, normalized to negative control; VP 10 nM positive control
Text: as §1, §2, §3

Sequence of human oxytocin receptor (human) (P30559 whole entry): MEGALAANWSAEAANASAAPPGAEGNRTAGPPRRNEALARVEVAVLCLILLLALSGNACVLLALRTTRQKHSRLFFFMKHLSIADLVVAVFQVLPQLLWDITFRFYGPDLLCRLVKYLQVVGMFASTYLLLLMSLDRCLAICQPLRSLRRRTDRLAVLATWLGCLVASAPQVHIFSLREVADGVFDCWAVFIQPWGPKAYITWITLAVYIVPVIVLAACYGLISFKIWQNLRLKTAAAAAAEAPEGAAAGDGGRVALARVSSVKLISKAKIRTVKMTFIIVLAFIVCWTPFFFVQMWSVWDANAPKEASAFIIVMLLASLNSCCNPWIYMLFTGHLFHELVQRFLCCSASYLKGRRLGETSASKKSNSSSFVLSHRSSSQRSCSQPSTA
Sequence of Oxytocin (P01178 whole entry, looked up): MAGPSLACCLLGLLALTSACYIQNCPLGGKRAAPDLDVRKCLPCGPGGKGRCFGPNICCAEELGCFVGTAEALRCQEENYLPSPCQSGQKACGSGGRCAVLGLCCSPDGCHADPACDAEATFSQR

Compound | Emax (efficacy, reference), IP-One accumulation, HEK293 cells expressing hOTR [1] | V1bR-GFP receptor activation / internalization [2] | pCREB activation (CREB phosphorylation) [3]
Oxytocin (from UniProt P01178 20-28) (peptide) | 100% |  | 
N=C(N)NCCC[C@H](NC(=O)[C@@H]1CCCN1C(=O)[C@@H]1CSSC[C@H](N)C(=O)N[C@@H](Cc2ccc(O)cc2)C(=O)N[C@@H](Cc2ccc(/N=N/c3ccccc3)cc2)C(=O)N[C@@H](CCC(N)=O)C(=O)N[C@@H](CC(N)=O)C(=O)N1)C(=O)NCC(N)=O [E-12] |  | did not cause any visible receptor activation or internalization; also recorded: did not induce V1bR-GFP internalization; also recorded: inactive | inactive
N=C(N)NCCC[C@H](NC(=O)[C@@H]1CCCN1C(=O)[C@@H]1CSSC[C@H](N)C(=O)N[C@@H](Cc2ccc(O)cc2)C(=O)N[C@@H](Cc2ccc(/N=N\c3ccccc3)cc2)C(=O)N[C@@H](CCC(N)=O)C(=O)N[C@@H](CC(N)=O)C(=O)N1)C(=O)NCC(N)=O [Z-12] |  | activated V1bR-GFP; also recorded: induced V1bR-GFP internalization | significantly (P < 0.001) activated pCREB at levels comparable to VP; also recorded: significantly induced CREB phosphorylation

From PMC10641831 (Journal of Medicinal Chemistry, 2023)
